Molecules are shown by their SMILES. Calls of active or inactive are those of the source. The rule behind the calls is not given here.

Consider five compounds from PubChem BioAssay AID1259407 (Chemical Carcinogenesis Research Information System (CCRIS), 2018).

For this series, the system named is CCRIS mutagenicity, Ames/micronucleus/aberration tests. Briefly: CCRIS mutagenicity studies.
Where [1] appears, read: Test System: AMES SALMONELLA TYPHIMURIUM, Strain/Indicator: TA98, Metabolic Activation: NONE, Method: STANDARD PLATE.
Where [2] appears, read: Test System: AMES SALMONELLA TYPHIMURIUM, Strain/Indicator: TA100, Metabolic Activation: NONE, Method: STANDARD PLATE.

With `COP(=O)(OC)OC=C(Cl)Cl`, the mutagenic call reads like this: (End Point: IN VITRO CHROMOSOMAL ABERRATIONS, Test System: CHO CELLS, Metabolic Activation: NONE) “active; positive”; (End Point: IN VITRO CHROMOSOMAL ABERRATIONS, Test System: CHO CELLS, Metabolic Activation: RAT, LIVER, S-9, AROCLOR 1254) “active; positive”; (End Point: In vivo micronucleus, Test System: Erythrocytes, Species: Mouse, Strain/Sex: Males and females (Strain not identified by DPR), Route: Intraperitoneal) “inactive; negative”; (Test System: AMES SALMONELLA TYPHIMURIUM, Strain/Indicator: TA98, Metabolic Activation: HAMSTER, LIVER, S-9, AROCLOR 1254 (30%), Method: PREINCUBATION) “inactive; negative”; (Test System: AMES SALMONELLA TYPHIMURIUM, Strain/Indicator: TA98, Metabolic Activation: NONE, Method: PREINCUBATION) “inactive; negative”; (Test System: AMES SALMONELLA TYPHIMURIUM, Strain/Indicator: TA98, Metabolic Activation: RAT, LIVER, S-9, AROCLOR 1254 (30%), Method: PREINCUBATION) “inactive; negative”. Besides, the mutagenic call by setting is: (Test System: AMES SALMONELLA TYPHIMURIUM, Strain/Indicator: TA100, Metabolic Activation: HAMSTER, LIVER, S-9, AROCLOR 1254 (30%), Method: PREINCUBATION) “active; positive”; (Test System: AMES SALMONELLA TYPHIMURIUM, Strain/Indicator: TA100, Metabolic Activation: NONE, Method: PREINCUBATION) “active; positive”; (Test System: AMES SALMONELLA TYPHIMURIUM, Strain/Indicator: TA100, Metabolic Activation: RAT, LIVER, S-9, AROCLOR 1254 (30%), Method: PREINCUBATION) “active; positive”; (Test System: AMES SALMONELLA TYPHIMURIUM, Strain/Indicator: TA100, Metabolic Activation: S-9, Method: STANDARD PLATE) “active; positive”; (Test System: CHINESE HAMSTER OVARY, Strain/Indicator: CHO-K1-BH4 (HGPRT)/6-THIOGUANINE, Metabolic Activation: NONE) “active; positive”; (Test System: CHINESE HAMSTER OVARY, Strain/Indicator: CHO-K1-BH4 (HGPRT)/6-THIOGUANINE, Metabolic Activation: S-9) “active; positive”. The mutagenic call by setting is: (Test System: CHINESE HAMSTER V-79, Strain/Indicator: V-79/OUABAIN, Metabolic Activation: NONE) “inactive; negative”; (Test System: E. COLI, Strain/Indicator: WP2, Metabolic Activation: NONE, Method: FLUCTUATION) “active; positive”; (Test System: E. COLI, Strain/Indicator: WP2, Metabolic Activation: NONE, Method: PREINCUBATION) “active; positive”; (Test System: E. COLI, Strain/Indicator: WP2, Metabolic Activation: NONE, Method: STANDARD PLATE) “active; positive”; (Test System: E. COLI, Strain/Indicator: WP2, Metabolic Activation: RAT, LIVER, S-9, AROCLOR 1254, Method: STANDARD PLATE) “active; positive”; (Test System: E. COLI, Strain/Indicator: WP2 UVRA, Metabolic Activation: NONE, Method: FLUCTUATION) “active; positive”. The mutagenic call reads like this: (Test System: E. COLI, Strain/Indicator: WP2 UVRA, Metabolic Activation: NONE, Method: PREINCUBATION) “active; positive”; (Test System: E. COLI, Strain/Indicator: WP2 UVRA, Metabolic Activation: NONE, Method: STANDARD PLATE) “active; positive”; (Test System: MOUSE LYMPHOMA, Strain/Indicator: L5178Y (TK+/TK-), Metabolic Activation: NONE, Method: SUSPENSION/PLATE) “active; positive”; (Test System: Mouse lymphoma, Strain/Indicator: L5178Y (TK+/TK-), Metabolic Activation: None) “active; positive”; (Test System: Mouse lymphoma, Strain/Indicator: L5178Y (TK+/TK-), Metabolic Activation: Rat, Liver, S-9) “active; positive”; (Test System: UDS HUMAN CELLS, Strain/Indicator: EUE LINE/THY INCORP, Metabolic Activation: NONE, Method: AUTORADIOGRAPHY) “active; positive”. Moreover, the mutagenic call by setting is: (Test System: UDS MOUSE FORESTOMACH EPITHELIUM, Strain/Indicator: THY INCORP, Metabolic Activation: NONE, Method: AUTORADIOGRAPHY) “inactive; negative”; (Test System: UDS RAT HEPATOCYTES, Strain/Indicator: BROMODEOXYURIDINE INCORP, Metabolic Activation: NONE, Method: FLOW CYTOMETRIC ANALYSIS) “inactive; negative”; (Test System: UDS RAT HEPATOCYTES, Strain/Indicator: THY INCORP, Metabolic Activation: NONE, Method: AUTORADIOGRAPHY) “inactive; negative”.

Take `CC(C)=C[C@H]1[C@@H](C(=O)OCc2coc(Cc3ccccc3)c2)C1(C)C`: the mutagenic call is “inactive; negative” under setting [1]; “inactive; negative” (Test System: AMES SALMONELLA TYPHIMURIUM, Strain/Indicator: TA98, Metabolic Activation: RAT, LIVER, S-9, AROCLOR 1254, Method: STANDARD PLATE); “inactive; negative” (Test System: AMES SALMONELLA TYPHIMURIUM, Strain/Indicator: TA100, Metabolic Activation: RAT, LIVER, S-9, AROCLOR 1254, Method: STANDARD PLATE); “inactive; negative” (Test System: CHINESE HAMSTER V-79, Strain/Indicator: V-79/6-THIOGUANINE, Metabolic Activation: NONE, Method: STANDARD PLATE); “inactive; negative” (Test System: CHINESE HAMSTER V-79, Strain/Indicator: V-79/6-THIOGUANINE, Metabolic Activation: RAT HEPATOCYTES, Method: STANDARD PLATE); “inactive; negative” (Test System: CHINESE HAMSTER V-79, Strain/Indicator: V-79/OUABAIN, Metabolic Activation: NONE, Method: STANDARD PLATE). Moreover, the mutagenic call (Test System: CHINESE HAMSTER V-79, Strain/Indicator: V-79/OUABAIN, Metabolic Activation: RAT HEPATOCYTES, Method: STANDARD PLATE) was “inactive; negative”.

Consider `COc1nsc2cc(OCC3CO3)ccc12` (configuration not stated), for which the mutagenic call under setting [2] was “active; positive”.

Consider `CC(=O)Nc1ccc(Cc2ccc(N)cc2)cc1`, for which the mutagenic call runs as follows: under setting [1], “inactive; negative”; (Test System: AMES SALMONELLA TYPHIMURIUM, Strain/Indicator: TA98, Metabolic Activation: RAT, LIVER, S-9, PCB, Method: STANDARD PLATE) “inactive; negative”; under setting [2], “inactive; negative”; (Test System: AMES SALMONELLA TYPHIMURIUM, Strain/Indicator: TA100, Metabolic Activation: RAT, LIVER, S-9, PCB, Method: STANDARD PLATE) “inactive; negative”.

Turning to `O=[N+]([O-])c1ccc2c(c1)CCc1cc([N+](=O)[O-])ccc1-2`, the mutagenic call is, setting by setting: (Test System: AMES SALMONELLA TYPHIMURIUM, Strain/Indicator: TA98(1,8-DNP6), Metabolic Activation: NONE, Method: STANDARD PLATE) “active; positive”; (Test System: AMES SALMONELLA TYPHIMURIUM, Strain/Indicator: TA98(NR), Metabolic Activation: NONE, Method: STANDARD PLATE) “active; positive”; under setting [1], “active; positive”.
